{
  "source": "patent US20120309087A1",
  "about": "“CANCER THERAPY” (University Court of The University of Dundee, priority 2006, published 2012)",
  "key": {"[1]": {"tested_on": "ARE-driven luciferase activity in AREc32 cells", "test": "Induction of ARE-driven luciferase activity in stable AREc32 reporter cells", "type": "cell-based, human", "settings": "for effect on luciferase activity in AREc32 cells (in words): sub-lethal doses, no BSO; for Type of modulation: grouping of drugs by effect on luciferase activity; for induction of luciferase activity after BSO pre-treatment: 50 μM BSO 24 h, then 10 μM cisplatin, 20 μM melphalan, 100 μM BCNU or 100 μM chlorambucil 24 h; for CD, concentration of inducting agent that doubled luciferase reporter activity: DMSO set at 1"}, "[2]": {"tested_on": "AKR1C mRNA in AREc32 cells", "test": "AKR1C mRNA in AREc32 cells (TaqMan)", "settings": "without pre-treatment with BSO; 24 h"}, "[3]": {"tested_on": "AKR1C1 and NQO1 mRNA in Caco-2 cells", "test": "AKR1C1 and NQO1 mRNA in Caco-2 cells (TaqMan)", "type": "cell-based, human", "settings": "sulforaphane 5 μM, 24 hrs", "protocol": "Method: AREc32 cells were seeded out in 96 well plates and treated with DMSO (control), tBHQ (50 μM), tBHQ+BTB09463 (5 μM) or tBHQ+Retinoic acid (1 μM). After 24 hours incubation, cells were washed and lysed before measuring luciferase activity. BTB09463 is 1-{4-[(3,4-dichlorobenzyl)oxy]phenyl}ethan-1-one. […] Method: AREc32 cells were seeded out in 96 well plates and dosed with BTB09463 (2.5, 5 or 10 μM) for 0, 24 or 48 hrs before treatment with tBHQ (50 μM). 24 hours after the addition of tBHQ, cells were washed and lysed before measuring luciferase activity. […] Method: ARE c32 cells were seeded out in 96 well plates and treated with DMSO (control), tBHQ (50 μM), tBHQ+retinoid (0.25, 0.5 and 1 μM). After 24 hours incubation, cells were washed and lysed before measuring luciferase activity. […] See FIG. 16 Method: A. Caco-2 cells were treated with the known ARE-gene inducer sulforaphane (5 μM), either alone or concomitantly with BTB09463 (5 μM) or Retinoic acid (1 μM). After 24 hrs, cell lysates were prepared and Western blotting performed to measure the levels of AKR1C protein. B. MCF7 cells were treated with sulforaphane (5 μM), either alone or concomitantly with BTB09463 (5 μM). After 24 hrs, cell lysates were prepared and Western blots performed to detect the levels of AKR1C and NQO1; GAPDH was used as a loading control in MCF7 cells. […] Method: Caco-2 cells were treated with DMSO (control), BTB09463 (5 μM), sulforaphane (5 μM) or a combination of sulforaphane plus BTB09463. After 24 hrs treatment, cells were harvested and RNA isolated. cDNA for each sample was generated by reverse transcription and subsequently used in real time PCR analysis of gene transcription (TaqMan analysis) for the ARE-driven genes AKR1C1 and NQO1. Data was normalised to the internal control 18S RNA and the relative levels of AKR1C1 and NQO1 calculated using the comparative CT method. […] Method: MCF7 cells were treated with the known ARE-gene inducer sulforaphane (5 μM), either alone or with various retinoids (0.5 μM). After 24 hrs, cell lysates were prepared and Western blots were performed to detect the levels of AKR1C protein present. […] See FIG. 19 Method: ARE reporter cell line AREc23 was seeded into 96 well plates and treated with a previously determined non-toxic concentration of cytotoxic drug. After 24 hours incubation, cells were washed and lysed before measuring luciferase activity. […] See FIG. 20a Method: ARE reporter cell line AREc23 was seeded into 96 well plates and treated with DMSO (control), Carmustine (100 μM), Carmustine+BTB09463 (5 μM) or Carmustine+Retinoic acid (5 μM) After 24 hours incubation, cells were washed and lysed before measuring luciferase activity. […] After 24 hours incubation, cells were washed and lysed before measuring luciferase activity. […]"}, "A549 cells": {"tested_on": "A549 cells", "test": "Cytotoxicity in A549 cells (ATP levels, 72 h)", "type": "cell-based, human", "settings": "single agent"}, "MCF7 cells": {"tested_on": "MCF7 cells", "test": "cells", "type": "cell-based", "settings": "single agent"}},
  "data": [
    {"compound": "COc1cccc2c1C(=O)c1c(O)c3c(c(O)c1C2=O)C[C@@](O)(C(=O)CO)C[C@@H]3O[C@H]1C[C@H](N)[C@H](O)[C@H](C)O1", "note": "[Doxorubicin]", "values": [
      {"measurement": "effect on luciferase activity in AREc32 cells (in words)", "setting": "[1]; 24 h", "result": "no effect"},
      {"measurement": "Type of modulation", "setting": "[1]; AREc32, 24 h", "result": "Inactive"}
    ]},
    {"compound": "CN(Cc1cnc2nc(N)nc(N)c2n1)c1ccc(C(=O)N[C@@H](CCC(=O)O)C(=O)O)cc1", "note": "[Methotrexate]", "values": [
      {"measurement": "effect on luciferase activity in AREc32 cells (in words)", "setting": "[1]; 24 h", "result": "no effect"},
      {"measurement": "Type of modulation", "setting": "[1]; AREc32, 24 h", "result": "Inactive"}
    ]},
    {"compound": "N.N.[Cl][Pt][Cl]", "note": "[Cisplatin]", "values": [
      {"measurement": "mRNA level of AKR1C (in words)", "setting": "[2]", "result": "only slightly increased"},
      {"measurement": "induction of luciferase activity after BSO pre-treatment", "setting": "[1]", "result": 3, "unit": "fold"},
      {"measurement": "Type of modulation", "setting": "[1]; AREc32, 24 h", "result": "Weak inducers"}
    ]},
    {"compound": "COc1ccc(O)c(C(C)(C)C)c1", "note": "[BHA]", "values": [
      {"measurement": "CD, concentration of inducting agent that doubled luciferase reporter activity", "setting": "[1]; AREc32, 24 h", "result": 20, "unit": "µM"}
    ]},
    {"compound": "COS(C)(=O)=O", "note": "[MMS]", "values": [
      {"measurement": "CD, concentration of inducting agent that doubled luciferase reporter activity", "setting": "[1]; AREc32, 24 h", "result": 100, "unit": "µM"}
    ]},
    {"compound": "OCc1c[nH]c2ccccc12", "note": "[I3C]", "values": [
      {"measurement": "CD, concentration of inducting agent that doubled luciferase reporter activity", "setting": "[1]; AREc32, 24 h", "result": 20, "unit": "µM"}
    ]},
    {"compound": "CC(=O)O[C@H]1C(=O)[C@@]2(C)[C@H]([C@H](OC(=O)c3ccccc3)[C@]3(O)C[C@H](OC(=O)[C@H](O)[C@@H](NC(=O)c4ccccc4)c4ccccc4)C(C)=C1C3(C)C)[C@]1(OC(C)=O)CO[C@@H]1C[C@@H]2O", "note": "[Paclitaxol]", "values": [
      {"measurement": "effect on luciferase activity in AREc32 cells (in words)", "setting": "[1]; 24 h", "result": "no effect"},
      {"measurement": "Type of modulation", "setting": "[1]; AREc32, 24 h", "result": "Inactive"}
    ]},
    {"compound": "O=C1c2c(O)ccc(O)c2C(=O)c2c(NCCNCCO)ccc(NCCNCCO)c21", "note": "[Mitozantrone]", "values": [
      {"measurement": "effect of BSO pre-treatment on luciferase activity", "setting": "[1]; 50 μM BSO 24 h before drug, data not shown", "result": "did not change luciferase activity significantly"},
      {"measurement": "Type of modulation", "setting": "[1]; AREc32, 24 h", "result": "Weak inducers"}
    ]},
    {"compound": "CS(=O)(=O)OCCCCOS(C)(=O)=O", "note": "[busulphan]", "values": [
      {"measurement": "induction of ARE-driven luciferase activity", "setting": "[1]; previously determined non-toxic concentration, 24 hours", "result": 3.1, "unit": "fold"}
    ]},
    {"compound": "C[S+]([O-])CCCCN=C=S", "note": "(centres unmarked) [SUL, sulforaphane]", "values": [
      {"measurement": "induction of AKR1C1 mRNA", "setting": "[3]", "result": 12, "unit": "fold"},
      {"measurement": "induction of NQO1 mRNA", "setting": "[3]", "result": "less markedly induced"},
      {"measurement": "CD, concentration of inducting agent that doubled luciferase reporter activity", "setting": "[1]; AREc32, 24 h", "result": 2, "unit": "µM"}
    ]},
    {"compound": "OO", "note": "[H2O2]", "values": [
      {"measurement": "CD, concentration of inducting agent that doubled luciferase reporter activity", "setting": "[1]; AREc32, 24 h", "result": 300, "unit": "µM"}
    ]},
    {"compound": "COc1cccc2c1C(=O)c1c(O)c3c(c(O)c1C2=O)C[C@@](O)(C(=O)CO)C[C@@H]3O[C@H]1C[C@H](N)[C@@H](O)[C@H](C)O1", "note": "[Epirubicin]", "values": [
      {"measurement": "effect on luciferase activity in AREc32 cells (in words)", "setting": "[1]; 24 h", "result": "no effect"},
      {"measurement": "Type of modulation", "setting": "[1]; AREc32, 24 h", "result": "Inactive"}
    ]},
    {"compound": "N[C@@H](Cc1ccc(N(CCCl)CCCl)cc1)C(=O)O", "note": "[Mephalan, melphalan]", "values": [
      {"measurement": "mRNA level of AKR1C (in words)", "setting": "[2]", "result": "only slightly increased"},
      {"measurement": "induction of luciferase activity after BSO pre-treatment", "setting": "[1]", "result": 5, "unit": "fold"},
      {"measurement": "effect on luciferase activity in AREc32 cells (in words)", "setting": "[1]; 24 h, listed as melphalan", "result": "weak inducers"},
      {"measurement": "effect on luciferase activity in AREc32 cells (in words)", "setting": "[1]; 24 h, listed as mephalan", "result": "modestly increased"},
      {"measurement": "Fold increase (luciferase activity relative to control value)", "setting": "[1]; AREc32, 24 h, concentration of each drug given in column Conc., mean ± S.D.", "result": "1.3 ± 0.06"},
      {"measurement": "Type of modulation", "setting": "[1]; AREc32, 24 h", "result": "Weak inducers"}
    ]},
    {"compound": "Bleomycin", "values": [
      {"measurement": "IC50", "setting": "A549 cells", "result": 55, "unit": "µM"},
      {"measurement": "IC50", "setting": "MCF7 cells", "result": 660, "unit": "µM"}
    ]},
    {"compound": "O=C(O)CCCc1ccc(N(CCCl)CCCl)cc1", "note": "[Chlorambucil]", "values": [
      {"measurement": "mRNA level of AKR1C (in words)", "setting": "[2]", "result": "only slightly increased"},
      {"measurement": "effect on luciferase activity in AREc32 cells (in words)", "setting": "[1]; 24 h", "result": "weak inducers"},
      {"measurement": "Type of modulation", "setting": "[1]; AREc32, 24 h", "result": "Weak inducers"}
    ]}
  ]
}
